Results as given in ChEMBL document CHEMBL1123294, “Dog coronary artery adenosine receptor: structure of the N6-aryl subregion” (J Med Chem, 1986).

Columns and labels:
Adenosine A2 receptor [1] = molecular target: T1, Adenosine A2 receptor (UniProt P29275+P29274); conditions: Canis lupus familiaris
Description: Molar potency ratio (MPR) against adenosine A2 receptor of canine coronary artery

Adenosine A2 receptor [2] = molecular target: T1, Adenosine A2 receptor; test: Association constant against A2 adenosine receptor; assay type: protein assay; conditions: Canis lupus familiaris
Adenosine A2 receptor [3] = molecular target: T1, Adenosine A2 receptor; test: Acidic dissociation constant(pKa) against A2 adenosine receptor of coronary artery; assay type: protein assay; conditions: Canis lupus familiaris
[4] = Index of hydrophobicity (k'); assay type: ADME
Adenosine A2 receptor [5] = molecular target: T1, Adenosine A2 receptor; conditions: Canis lupus familiaris; remark: listed apart in the source
Adenosine A2 receptor [6] = molecular target: T1, Adenosine A2 receptor; test: Maximum increase in coronary flow, percent of control, and nucleoside concentration in coronary plasma at 28 uM; assay type: functional; conditions: Canis lupus familiaris
Adenosine A2 receptor [7] = molecular target: T1, Adenosine A2 receptor; test: Molar potency ratio (MPR) against A2 adenosine receptor of coronary artery; assay type: functional; conditions: Canis lupus familiaris
Adenosine A2 receptor [8] = molecular target: T1, Adenosine A2 receptor; test: Maximum increase in coronary flow, percent of control, and nucleoside concentration in coronary plasma at 17 uM; assay type: functional; conditions: Canis lupus familiaris
Adenosine A2 receptor [9] = molecular target: T1, Adenosine A2 receptor; test: Maximum increase in coronary flow, percent of control, and nucleoside concentration in coronary plasma at 12 uM; assay type: functional; conditions: Canis lupus familiaris
[10] = Estimated ionization constant(pKa); assay type: physicochemical

T1 sequence (P29274 whole entry, looked up): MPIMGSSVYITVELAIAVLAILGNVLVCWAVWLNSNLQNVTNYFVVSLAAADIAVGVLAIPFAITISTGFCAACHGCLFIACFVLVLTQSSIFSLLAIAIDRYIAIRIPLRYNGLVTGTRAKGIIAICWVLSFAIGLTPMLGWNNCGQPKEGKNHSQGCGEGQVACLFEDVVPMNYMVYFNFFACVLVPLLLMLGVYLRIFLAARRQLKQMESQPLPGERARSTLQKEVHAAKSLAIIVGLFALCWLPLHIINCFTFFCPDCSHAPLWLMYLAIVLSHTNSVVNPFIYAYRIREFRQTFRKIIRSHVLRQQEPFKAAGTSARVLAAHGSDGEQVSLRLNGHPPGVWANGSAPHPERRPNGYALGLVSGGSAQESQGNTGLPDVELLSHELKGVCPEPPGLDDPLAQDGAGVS
T1 sequence (P29275 whole entry, looked up): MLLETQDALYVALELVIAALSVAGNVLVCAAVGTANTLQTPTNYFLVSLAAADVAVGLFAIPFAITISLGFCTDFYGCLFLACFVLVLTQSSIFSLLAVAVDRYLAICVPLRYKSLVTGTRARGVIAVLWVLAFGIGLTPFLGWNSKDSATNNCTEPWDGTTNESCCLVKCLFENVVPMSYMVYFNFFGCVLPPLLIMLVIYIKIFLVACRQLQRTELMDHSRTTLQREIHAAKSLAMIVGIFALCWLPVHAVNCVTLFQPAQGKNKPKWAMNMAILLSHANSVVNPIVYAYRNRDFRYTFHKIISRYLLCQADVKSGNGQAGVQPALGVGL

| Structure (SMILES) | MPR (Adenosine A2 receptor [1]) | pka (Adenosine A2 receptor [3]) | k' [4] | further results |
| --- | --- | --- | --- | --- |
| OC[C@H]1OC(n2cnc3c(Nc4cccc(F)c4)ncnc32)[C@H](O)[C@@H]1O (stereo not given in full) | 0.43 | 2.66 | 2.36 | K (Adenosine A2 receptor [2]): 6360 M⁻¹ |
| OC[C@H]1OC(n2cnc3c(NC4CCc5ccccc5C4)ncnc32)[C@H](O)[C@@H]1O (stereo not given in full) |  |  | 4.89 | MPR (Adenosine A2 receptor [5]): 0.14 |
| COc1cc(Nc2ncnc3c2ncn3C2O[C@H](CO)[C@@H](O)[C@H]2O)cc(OC)c1OC (stereo not given in full) |  | 2.8 | 1.54 | Activity (Adenosine A2 receptor [6]): 28% |
| OC[C@H]1O[C@@H](n2cnc3c(Nc4ccccc4)ncnc32)[C@H](O)[C@@H]1O [N6-PHENYLADENOSINE] | 1.4 | 2.73 | 1.29 | K (Adenosine A2 receptor [2]): 3160 M⁻¹ |
| COc1ccccc1CNc1ncnc2c1ncn2[C@@H]1O[C@H](CO)[C@@H](O)[C@H]1O |  | 3.3 | 2.31 | MPR (Adenosine A2 receptor [7]): 0.7 |
| Cc1cccc(C)c1Nc1ncnc2c1ncn2C1O[C@H](CO)[C@@H](O)[C@H]1O (stereo not given in full) |  |  | 1.52 | Activity (Adenosine A2 receptor [8]): 22% |
| Cc1cc(C)cc(Nc2ncnc3c2ncn3C2O[C@H](CO)[C@@H](O)[C@H]2O)c1 (stereo not given in full) |  |  | 6.43 | Activity (Adenosine A2 receptor [9]): 4% |
| C[C@H](Cc1ccccc1)Nc1ncnc2c1ncn2[C@@H]1O[C@H](CO)[C@@H](O)[C@H]1O (stereo in doubt; 1) |  |  |  | MPR (Adenosine A2 receptor [5]): 4.3 |
| COc1ccccc1CCNc1ncnc2c1ncn2C1O[C@H](CO)[C@@H](O)[C@H]1O (stereo not given in full) | 1.2 |  | 2.57 | pKa [10]: 3.56 |
| OC[C@H]1OC(n2cnc3c(NCCc4ccc(F)cc4)ncnc32)[C@H](O)[C@@H]1O (stereo not given in full) | 2.1 | 3.32 | 2.39 | K (Adenosine A2 receptor [2]): 10300 M⁻¹ |
| COc1ccc(Nc2ncnc3c2ncn3[C@@H]2O[C@H](CO)[C@@H](O)[C@H]2O)cc1 | 3.5 | 2.95 | 1.36 |  |
| OC[C@H]1O[C@@H](n2cnc3c(NCc4ccc(F)cc4)ncnc32)[C@H](O)[C@@H]1O | 0.36 | 3.32 | 1.57 |  |
| OC[C@H]1OC(n2cnc3c(NCCc4ccccc4Cl)ncnc32)[C@H](O)[C@@H]1O (stereo not given in full) | 0.67 | 3.27 | 3.64 | K (Adenosine A2 receptor [2]): 32400 M⁻¹ |
| COc1ccc(CNc2ncnc3c2ncn3[C@@H]2O[C@H](CO)[C@@H](O)[C@H]2O)cc1 |  | 3.06 | 1.66 | MPR (Adenosine A2 receptor [5]): 0.04 |
| Cc1ccccc1CNc1ncnc2c1ncn2[C@@H]1O[C@H](CO)[C@@H](O)[C@H]1O | 1.8 | 3.22 | 2.76 |  |
| OC[C@H]1OC(n2cnc3c(NCc4ccccc4F)ncnc32)[C@H](O)[C@@H]1O (stereo not given in full) | 0.57 | 3.08 | 1.57 |  |
| OC[C@H]1OC(n2cnc3c(NCCc4ccc(Cl)cc4)ncnc32)[C@H](O)[C@@H]1O (stereo not given in full) | 0.41 | 3.23 | 4.07 |  |
| OC[C@H]1OC(n2cnc3c(Nc4ccc(F)cc4)ncnc32)[C@H](O)[C@@H]1O (stereo not given in full) | 1.5 | 2.65 | 1.68 | K (Adenosine A2 receptor [2]): 3560 M⁻¹ |
| OC[C@H]1OC(n2cnc3c(Nc4ccc(Cl)cc4)ncnc32)[C@H](O)[C@@H]1O (stereo not given in full) | 0.94 | 2.46 | 4.96 |  |
| Cc1ccccc1Nc1ncnc2c1ncn2C1O[C@H](CO)[C@@H](O)[C@H]1O (stereo not given in full) | 0.65 | 2.98 | 1.4 |  |
